Data published in patent publication US4536400A, “Phosphonoformic acid esters” (priority 1977, dated 1985).
Several values for one entry are separate records, joined by “and”; a condition that tells them apart may be missing. Equal entries are not always repeated. Where two headings read alike, the source gives them in different places.

Tests used:
[1] = Preliminary acute toxicity test in mice; assay type: in vivo; conditions: groups of two male NMRI mice
Description: A preliminary acute toxicity test was carried out in mice. Groups of two male mice of the NMRI strain weighing 20-21 g received the test compound in doses of 62.5-500 mg/kg ip. The compound was given as a solution in 0.9% NaCl. The number of animals dead 24 hours after injection was as follows.

[2] = Acid stability test in 0.1 N HCl (t.l.c. estimate of decomposition products); assay type: physicochemical; conditions: incubated in 0.1 N HCl at 37° C. for 2 hours; 100 μg compound applied
Description: The acid stability was investigated by dissolving 5 mg of each compound in 1 ml of 0.1 N HCl in a test tube. For use as references 0.2 ml of each solution was withdrawn, immediately treated with 0.2 ml of a 10% aqueous solution of NaHCO3 and frozen. The remaining 0.8 ml of each solution was incubated at 37° C. for 2 hours. After incubation, 0.8 ml of a 10% aqueous solution of NaHCO3 was added to each solution and the solutions were frozen. The incubated compounds and the reference compounds were lyophilized to dryness and redissolved in distilled H2 O, 0.2 ml and 1.0 ml respectively, for each reference solution and incubated solution. The solutions were applied to silica gel (Merck PF254, 20×20 cm) and polyethylene imine (Macherey-Nagel PEI, 20×20 cm) thin layer plates. A total of 20 μl of the reference solutions (100 μg compound) and 25 μl of the incubated solutions ([…]) were applied. To each plate was also added, as references, solutions of phosphorous acid (H2 HPO3) (5 and 20 μg) and of trisodiumphosphonoformate (5 and 20 μg). (Decomposition of phosphonoformic acid at low pH produces phosphorous acid).
The silica gel plates were prepared in duplicate and eluted with a solution composed of methanol--10% aq ammonia--trichloroacetic acid--water (50--15--5--3, v/v) and the polyethylene imine plates were eluted with a 1M aq lithium chloride solution. […]

[3] = system: cutaneous herpes simplex type 1 infections; experiment: Inhibition of cutaneous herpes on guinea pigs; assay type: in vivo, guinea pig; conditions: scale 0 to 3
Text: The effect of cutaneous herpes simplex type 1 infections have been measured in a guinea pig model described by Hubler et al. J. Invest Dermatol 69 (1974) 92. […] The appearance of an infected treated area and a similar infected untreated (only isopropanol-glycerol-water) area was scored daily on a scale from 0 to 3. The total effect is judged from the score at day 5.

[4] = system: influenza (WSN Wilson Smith Neurotropic type A); experiment: Inhibition of influenza WSN plaque on MDCK monolayers; assay type: cell-based, influenza virus
[5] = system: herpes simplex type 1; experiment: Plaque reduction assay for herpes simplex type 1 on GMK monolayers; assay type: cell-based; conditions: for inhibition at 400 µM: Human alphaherpesvirus 1, 400 μM test compound; for inhibition at 500 µM: Human alphaherpesvirus 1, 500 μM test compound
Description: The plaque reduction assay for herpes simplex type 1 was performed on GMK (Green Monkey Kidney) cells as described by Ejereito et al. J. Gen. Virol. 2 (1968) 357. Monolayers on 5 cm petri dishes were used and after virus adsorption the test compound was added in the medium.
The plaque reduction assay for herpes simplex type 1 was performed on GMK (Green Monkey Kidney) cells as described by Ejereito et al. J. Gen. Virol 2 (1968) 357. Monolayers on 5 cm petri dishes were used and after virus adsorption the test compound was added in the medium.
Inhibition of herpes simplex type 1 plaque on GMK monolayers

[6] = system: influenza Victoria; experiment: Inhibition of influenza Victoria plaque on MDCK monolayers; assay type: cell-based, influenza virus
[7] = topical 2% solution, start of treatment 24 hours after infection
[8] = treated in 0.1% Tween 80-10% aqueous glycerol
[9] = topical 2% solution in isopropanol-glycerol-water twice daily for 3 days starting 4 hours after infection
[10] = treated in 0.1% Tween 80-10% aqueous glycerol, start of treatment 24 hours after infection
[11] = Day 1, 10 μmol intraperitoneally, urine of two NMRI male mice
[12] = Day 2, 10 μmol intraperitoneally, urine of two NMRI male mice
[13] = Day 3, 10 μmol intraperitoneally, urine of two NMRI male mice

O=C(Oc1ccccc1)P(=O)(O)Oc1ccccc1
number of animals dead 24 hours after injection ([1]; 62.5 mg/kg ip): 0/2 | number of animals dead 24 hours after injection ([1]; 125 mg/kg ip): 0/2 | number of animals dead 24 hours after injection ([1]; 250 mg/kg ip): 0/2 | number of animals dead 24 hours after injection ([1]; 500 mg/kg ip): 0/2

O=C(O)P(=O)(O)O [EHB 776, trisodium phosphonoformate]
Estimated formation of phosphorous acid [2]: 20 µg

O=C(Oc1ccccc1)P(=O)(Oc1ccccc1)Oc1ccccc1 [VIS 040, Hydroxycarbonylphosphonic Acid Triphenyl Ester]
Score at day 5, treated [3, 7]: 0 | Inhibition (%) ([4]; 100 μM test compound): 90% | Inhibition (%) ([4]; 500 μM test compound): > 99%

O=C(O)P(=O)(O)Oc1ccccc1 [VIS 041, Phenyl disodium oxycarbonylphosphonate]
Inhibition (%) ([5]; 10 μM test compound): ~ 50% | Inhibition (%) ([5]; 40 μM test compound): > 90% | Inhibition (%) ([5]; 100 μM test compound, 100 µM): > 99.9% and 99% | Inhibition (%) ([5]; 500 μM test compound): > 99.9% | Score at day 5, treated [3, 7]: 0 | Inhibition (%) ([4]; 500 μM test compound): > 99.9%

O=C(Oc1ccccc1)P(=O)([O-])Oc1ccccc1.[Na+] [VIS 043, Sodium phenyl phenoxycarbonylphosphonate]
Inhibition (%) ([5]; 20 μM test compound): ~ 0% | Inhibition (%) ([5]; 40 μM test compound): > 90.9% | Inhibition (%) ([5]; 100 μM test compound, 100 µM): > 99.9% and > 99% | Inhibition (%) ([5]; 500 μM test compound): > 99.9% | Score at day 5, treated [3, 7]: 0 | Inhibition (%) ([4]; 20 μM test compound, 20 µM): 62% and 47% | Inhibition (%) ([4]; 100 μM test compound, 100 µM): 84% and 90% and > 99.9% | Inhibition (%) ([4]; 500 μM test compound): > 99.9%

Cc1ccc(OP(=O)(Oc2ccc(C)cc2)C(=O)Oc2ccccc2)cc1 [VIS 056, Di-p-tolyl phenoxycarbonylphosphonate]
Inhibition (%) ([5]; 100 μM test compound): > 99% | Inhibition (%) ([5]; 500 μM test compound): > 99% | Inhibition (%) ([6]; 200 μM test compound): 75%

COc1ccc(OP(=O)([O-])C(=O)Oc2ccccc2)cc1.[Na+] [VIS 058, Sodium p-methoxyphenyl phenoxycarbonylphosphonate]
Inhibition (%) ([5]; 10 μM test compound): ~ 50% | Inhibition (%) ([5]; 40 μM test compound): > 90% | Inhibition (%) ([5]; 100 μM test compound): 88% | Inhibition (%) ([5]; 500 μM test compound): > 99.9% | Inhibition (%) ([4]; 100 μM test compound): 84% | Inhibition (%) ([4]; 500 μM test compound): > 99.9%

Cc1ccc(OP(=O)(O)C(=O)O)cc1 [VIS 059, p-tolyl disodium oxycarbonylphosphonate]
Inhibition (%) ([5]; 5 μM test compound, 5 µM): 57% and > 90% | Inhibition (%) ([5]; 20 μM test compound): 95% | Inhibition (%) ([5]; 100 μM test compound): > 99.9% | Inhibition (%) ([5]; 500 μM test compound): > 99.9% | Score at day 5, treated [3, 8]: 1 and 2 | Inhibition (%) ([4]; 20 μM test compound, 20 µM): 58% and 36% | Inhibition (%) ([4]; 500 μM test compound, 500 µM): > 99.9% and 91% and 92%

O=C(Oc1ccccc1)P(=O)([O-])Oc1ccc(Cl)cc1.[Na+] [VIS 063, sodium p-chlorophenyl phenoxycarbonylphosphonate]
Inhibition (%) ([5]; 5 μM test compound): ~ 50% | Inhibition (%) ([5]; 10 μM test compound): > 90% | Inhibition (%) ([5]; 20 μM test compound): 69% | Inhibition (%) ([5]; 100 μM test compound): > 99.9% | Inhibition (%) ([5]; 500 μM test compound): > 99.9% | Score at day 5, treated [3, 9]: 2 and 3 | Inhibition (%) ([4]; 100 μM test compound): 72% | Inhibition (%) ([4]; 500 μM test compound): > 99.9%

Cc1ccc(OP(=O)([O-])C(=O)Oc2ccccc2)cc1.[Na+] [VIS 065, sodium p-tolyl phenoxycarbonylphosphonate]
Inhibition (%) ([5]; 10 μM test compound): ~ 50% | Inhibition (%) ([5]; 20 μM test compound): > 90% | Inhibition (%) ([6]; 200 μM test compound): 76% | Inhibition (%) ([6]; 500 μM test compound): > 99%

O=C(O)P(=O)(O)Oc1ccc(Cl)cc1 [VIS 066, p-chlorophenyl disodium oxycarbonylphosphonate]
Inhibition (%) ([5]; 5 μM test compound, 5 µM): 89% and ~ 75% | Inhibition (%) ([5]; 10 μM test compound): > 90% | Inhibition (%) ([5]; 20 μM test compound): 98% | Inhibition (%) ([5]; 100 μM test compound): > 99.9% | Inhibition (%) ([5]; 500 μM test compound): > 99.9% | Inhibition (%) ([4]; 100 μM test compound): 54% | Inhibition (%) ([4]; 500 μM test compound): > 99.9%

COc1ccc(OP(=O)(O)C(=O)O)cc1 [VIS 067, p-Methoxyphenyl disodium oxycarbonylphosphonate]
Inhibition (%) ([5]; 5 μM test compound): 57% | Inhibition (%) ([5]; 20 μM test compound): 87% | Inhibition (%) ([5]; 100 μM test compound): 99% | Inhibition (%) ([5]; 500 μM test compound): > 99.9% | Score at day 5, treated [3, 8]: 1 | Inhibition (%) ([4]; 100 μM test compound): 58% | Inhibition (%) ([4]; 500 μM test compound, 500 µM): 73% and > 99.9%

Cc1ccc(OC(=O)P(=O)([O-])[O-])cc1.[Na+].[Na+] [VIS 130, Disodium p-tolyloxycarbonylphosphonate]
inhibition at 200 µM ([5]; Human alphaherpesvirus 1, 200 μM test compound): ~80% | inhibition at 400 µM [5]: > 90% | Score at day 5, treated [3, 10]: 1

O=C(Oc1ccc(Cl)c(Cl)c1)P(=O)(O)O [VIS 135, Disodium 3,4-dichlorophenoxycarbonylphosphonate]
inhibition at 100 µM ([5]; Human alphaherpesvirus 1, 100 μM test compound): 85%

O=C(Oc1ccc(Cl)cc1)P(=O)([O-])[O-].[Na+].[Na+] [VIS 238, Disodium p-chlorophenoxycarbonylphosphonate]
Inhibition (%) ([5]; 100 μM test compound, 100 µM): 52% and ~ 90% | Inhibition (%) ([5]; 500 μM test compound, 500 µM): 99% | inhibition at 500 µM [5]: 96% | Score at day 5, treated [3, 10]: 1

COc1ccc(OC(=O)P(=O)([O-])[O-])cc1.[Na+].[Na+] [VIS 239, Disodium p-methoxyphenoxycarbonylphosphonate]
Inhibition (%) ([5]; 500 μM test compound, 500 µM): 36% and 52% and 70% | inhibition at 400 µM [5]: ~60% | inhibition at 600 µM ([5]; Human alphaherpesvirus 1, 600 μM test compound): > 90% | Score at day 5, treated [3, 10]: 1

CCOC(=O)c1ccc(OC(=O)P(=O)([O-])[O-])cc1.[Na+].[Na+] [VIS 242, Disodium p-(ethoxycarbonyl)phenoxycarbonylphosphonate]
Score at day 5, treated [3, 10]: 1

O=C(Oc1ccccc1)P(=O)([O-])[O-].[Na+].[Na+] [VIS 412, Disodium phenoxycarbonylphosphonate]
Inhibition (%) ([5]; 500 μM test compound, 500 µM): 88% | inhibition at 60 µM ([5]; Human alphaherpesvirus 1, 60 μM test compound): ~50% | inhibition at 500 µM [5]: 80% | Score at day 5, treated [3, 9]: 0 | Score at day 5, treated [3, 7]: 0

O=C(O)P(=O)(O)Oc1ccc2c(c1)CCC2 [VIS 442, 5-Indanyl disodium oxycarbonylphosphonate]
Inhibition (%) ([5]; 10 μM test compound): > 90% | Inhibition (%) ([5]; 500 μM test compound): > 99.9% | Score at day 5, treated [3, 10]: 1 | Inhibition (%) ([4]; 500 μM test compound): 94%

Cc1ccc(OC(=O)P(=O)(O)O)cc1 [drawing 119]
Recovered phosphonoformic acid activity in urine [11]: 1.25 μmol phosphonoformic acid | Recovered phosphonoformic acid activity in urine [12]: 0.25 μmol phosphonoformic acid | Recovered phosphonoformic acid activity in urine [13]: 0.10 μmol phosphonoformic acid

O=C(O)P(=O)(O)Oc1ccccc1 [drawing 120]
Recovered phosphonoformic acid activity in urine [11]: 1.00 μmol phosphonoformic acid | Recovered phosphonoformic acid activity in urine [12]: 0.25 μmol phosphonoformic acid | Recovered phosphonoformic acid activity in urine [13]: 0.25 μmol phosphonoformic acid

O=C(O)P(=O)(O)O [drawing 121, reference compound]
Recovered phosphonoformic acid activity in urine (mouse, in vivo, ip): 1.25 μmol phosphonoformic acid

O=C(Oc1ccccc1)P(=O)(O)O [drawing 123]
number of animals dead 24 hours after injection ([1]; 62.5 mg/kg ip): 0/2 | number of animals dead 24 hours after injection ([1]; 125 mg/kg ip): 0/2 | number of animals dead 24 hours after injection ([1]; 250 mg/kg ip): 0/2 | number of animals dead 24 hours after injection ([1]; 500 mg/kg ip): 0/2

O=C(O)P(=O)(O)Oc1ccccc1 [drawing 125]
number of animals dead 24 hours after injection ([1]; 62.5 mg/kg ip): 0/2 | number of animals dead 24 hours after injection ([1]; 125 mg/kg ip): 0/2 | number of animals dead 24 hours after injection ([1]; 250 mg/kg ip): 0/2 | number of animals dead 24 hours after injection ([1]; 500 mg/kg ip): 0/2
